For data set [1], the target named is Voltage-gated inwardly rectifying potassium channel KCNH2 (Homo sapiens, UniProt Q12809). In words: Binding affinity to human ERG by radioligand binding assay.
Data set [2] can be described thus: Aqueous solubility of the compound at pH 6.8. It counts as physicochemical.

The text below walks through data of ChEMBL document CHEMBL3808377, “Core Replacements in a Potent Series of VEGFR-2 Inhibitors and Their Impact on Potency, Solubility, and hERG” (ACS Med Chem Lett, 2016).

Converted amounts (≈) assume the structure as drawn. Some results are limits rather than exact numbers.

Voltage-gated inwardly rectifying potassium channel KCNH2, sequence (Q12809 whole entry): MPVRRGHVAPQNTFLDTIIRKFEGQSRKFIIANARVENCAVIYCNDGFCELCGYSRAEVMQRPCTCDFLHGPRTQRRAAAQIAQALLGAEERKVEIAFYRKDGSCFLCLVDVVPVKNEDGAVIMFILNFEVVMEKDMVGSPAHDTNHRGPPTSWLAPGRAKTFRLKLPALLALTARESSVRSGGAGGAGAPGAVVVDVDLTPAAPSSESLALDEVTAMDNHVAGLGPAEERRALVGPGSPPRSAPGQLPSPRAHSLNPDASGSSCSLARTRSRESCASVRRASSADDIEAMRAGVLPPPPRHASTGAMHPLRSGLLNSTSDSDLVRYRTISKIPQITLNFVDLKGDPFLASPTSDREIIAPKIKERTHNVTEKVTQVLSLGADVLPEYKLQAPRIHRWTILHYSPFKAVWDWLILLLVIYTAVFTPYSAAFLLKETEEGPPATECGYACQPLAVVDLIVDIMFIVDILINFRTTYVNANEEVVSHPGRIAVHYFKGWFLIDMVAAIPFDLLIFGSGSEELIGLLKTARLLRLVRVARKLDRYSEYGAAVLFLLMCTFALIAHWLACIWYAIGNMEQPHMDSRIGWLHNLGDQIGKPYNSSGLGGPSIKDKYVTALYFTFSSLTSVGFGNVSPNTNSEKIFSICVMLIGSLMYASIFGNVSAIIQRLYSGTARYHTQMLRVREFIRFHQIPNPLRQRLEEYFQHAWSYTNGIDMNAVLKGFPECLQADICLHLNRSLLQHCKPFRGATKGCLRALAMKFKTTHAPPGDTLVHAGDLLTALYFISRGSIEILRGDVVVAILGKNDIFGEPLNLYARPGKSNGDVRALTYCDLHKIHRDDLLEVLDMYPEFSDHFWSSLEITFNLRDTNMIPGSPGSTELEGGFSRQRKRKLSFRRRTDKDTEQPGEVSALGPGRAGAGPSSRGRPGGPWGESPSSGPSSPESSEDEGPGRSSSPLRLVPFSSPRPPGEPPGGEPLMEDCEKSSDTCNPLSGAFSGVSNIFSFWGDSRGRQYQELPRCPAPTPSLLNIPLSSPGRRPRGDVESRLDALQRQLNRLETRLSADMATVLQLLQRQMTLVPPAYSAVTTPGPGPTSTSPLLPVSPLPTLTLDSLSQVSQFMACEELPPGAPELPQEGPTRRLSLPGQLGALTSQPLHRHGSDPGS

The IC50 is the concentration at which inhibition is half-maximal. The solubility is the dissolved amount per volume that the medium holds. Read a low solubility as little dissolved substance. Molecule `CC(C)(C)c1cc(NC(=O)c2cnc3cc(Oc4ncnc5c4CNC5)ccn23)no1` returned an IC50 in data set [1] of 9.2 µM. The concentration in solution in data set [2] (solubility) was 456 µM (≈ 191 µg/mL).
Taken in the same sequence, the figures for `CC(C)(C)c1cc(NC(=O)n2ccc3nc(Oc4ncnc5c4CNC5)ccc32)no1` were 26 µM and 260 µM (≈ 109 µg/mL).
The corresponding values for `C[C@H]1Cc2c(ncnc2Oc2ccc3c(ccn3C(=O)Nc3cc(C4(C(F)(F)F)CC4)on3)c2)CN1` are 7.4 µM and 34 µM (≈ 16.9 µg/mL).
Taken in the same sequence, the figures for `CC(C)(C)c1cc(NC(=O)n2ccc3ccc(Oc4ncnc5c4CNC5)cc32)no1` were 21 µM and 81 µM (≈ 33.9 µg/mL).
`CC1(c2cc(NC(=O)c3ccn4cc(Oc5ncnc6c5CNC6)ccc34)n[nH]2)CC1` came in with a solubility in data set [2] of 280 µM (≈ 116 µg/mL).
In data set [1], `C[C@H]1Cc2c(ncnc2Oc2ccc3ccn(C(=O)Nc4cc(C5(C(F)(F)F)CC5)on4)c3c2)CN1` had an IC50 of 8.6 µM. This molecule also registered a solubility in data set [2] of 3 µM (≈ 1.5 µg/mL).
The corresponding values for `CC(C)(C)c1cc(NC(=O)n2ccc3ncc(Oc4ncnc5c4CNC5)cc32)no1` are > 30 µM and 240 µM (≈ 101 µg/mL).
Turning to `CC(C)(C)c1cc(NC(=O)n2ncc3cc(Oc4ncnc5c4CNC5)ccc32)no1`, the half-maximal inhibitory concentration (IC50) in data set [1] is 7.7 µM. This molecule also gave a solubility in data set [2] of 9 µM (≈ 3.78 µg/mL).
For the molecule `CC(C)(C)c1cc(NC(=O)n2ccc3cc(Oc4ncnc5c4CNC5)cnc32)no1`, the 50% inhibitory concentration (IC50) in data set [1] worked out at 5.7 µM. In data set [2], this molecule yielded a solubility of 25 µM (≈ 10.5 µg/mL).
